# Results: paper PMC8750630, “Novel Molecular Targets for Hepatocellular Carcinoma” (Cancers, 2021)
# Test system: CD8+ T cells
# Test: pMHC multimer staining of PBMCs for epitope-specific CD8+ T cells
# Assay type: cell-based, human
# Conditions: HLA-A*02:01 multimers, PBMCs from 4 HCC patients and 3 healthy donors, average
# Protocol: pMHC complexes were generated by combining purified disulfide-stabilized HLA A*0201 monomer (100 μg/mL) with 100 μM peptide for 30 min in PBS at room temperature. Then, pMHC complexes were centrifuged for 5 min at 3300× g to sediment any aggregated MHC molecules. For each 100 μL pMHC, 9.02 μL (0.2 mg/mL stock, SA-PE (BioLegend, 405204), SA-APC (BioLegend, 405207), SA-PE/Cy7 (BioLegend, 405206), SA-PE-CF594 (BD, 562284)), or 18.04 μL (0.1 mg/mL stock, SA-BV421 (BioLegend, 405226), SA-BV650 (BioLegend, 405231) streptavidin conjugate was added and incubated for 30 min on ice. D-biotin (Sigma-Aldrich, St.Louis, MO, USA) was added at a final concentration of 25 μM to block any free binding sites and multimers were stored at −20 °C with 5% glycerol and 0.5% BSA. To stain for T-cell reactivity, PBMCs from 4 HCC patients and 3 healthy donors (2–5 × 10^6) were incubated with a pool of pMHC multimers (3 μL/multimer) and dasatinib (50 nM final, LC laboratories, D-3307) for 15 min at 37 °C. Cells were then stained with antibodies CD3-FITC (1:40, BD, 345763) and CD8-BV480 (1:100, BD, 566121) and LIVE/DEAD Fixable Near-IR (1:1000, Invitrogen, Waltham, MA, USA L10119) for 30 min on ice and washed twice in FACS buffer (PBS + 2% FCS). Gating for CD3^+/CD8^+ T cells was performed on live cells, and binding to pMHCs was assessed by measuring specific fluorescence associated with each individual pMHC. Samples were acquired on a flow cytometer (LSRFortessa, BD, Franklin Lakes, NJ, USA).
row,Sequence,percentage of CD8+ T cells reacting with the peptide [%]
1,ALLALTSAV,0.88
2,LLGPQLVLL,0.55
3,MLAGNAFTA,0.46
4,MLAGNEFQV,0.32
